# Measured values reported in patent publication US20190275058A1, “COMPOSITIONS AND METHODS FOR TREATING ADDICTION OR SUBSTANCE USE DISORDERS” (EMBERA NEUROTHERAPEUTICS, INC., priority 2016, published 2019).
# “Also recorded” adds a separate entry of the source. Read-outs that look alike come from different tables or passages of the source.
# How the values were obtained:
# [1] = tested on: rats; details: pretreatment, literature; cited from earlier work
# [2] = tested on: adult male Wistar rats; experiment: Cue-induced reinstatement of extinguished cocaine seeking; assay type: in vivo, rat; details: for reinstatement of extinguished cocaine seeking: pretreatment, summary of the studies
# Text: Training to self-administer cocaine: In one model, rats were exposed to alternating 15-minute periods of access to cocaine self-administration and food reinforcement. Food was used to control for potential nonspecific, ataxis effects of the drugs and combinations. […] The other preclinical model that has been used is the cue-induced reinstatement of extinguished cocaine seeking model of relapse. In this model, rats are trained to self-administer cocaine and the ability of conditioned cues in the environment to reinstate extinguished responding is assessed and taken as a measure of relapse.
# Cue-induced Reinstatement of Extinguished Cocaine Seeking: The experiments described herein were designed to investigate whether or not drug combinations identified as effective in reducing cocaine self-administration would also block the ability of conditioned cues to reinstate extinguished cocaine-seeking behavior. Adult male Wistar rats were implanted with chronic jugular catheters and trained to self-administer cocaine (0.25 mg/kg/infusion) by pressing one of the response levers in the experimental chamber (i.e., the “active” or “cocaine” lever) under a fixed-ratio […] schedule of reinforcement during daily 2-hour sessions conducted 5 days per week. At the start of each session, both levers were extended into the chamber and the stimulus light above the active lever was illuminated to indicate the availability of cocaine. […] A 20-second timeout period followed each infusion. The stimulus light above the active lever and the house light and tone compound stimulus were extinguished during the timeout period, and the light above the active lever was illuminated once the timeout ended. When responding on the active lever varied less than 20% for two consecutive days, the response requirement was increased to FR2. When similar stability was observed under the FR2 schedule or reinforcement, the response requirement was increased to the final ratio of four. The criteria for stable responding under the FR4 schedule of reinforcement was a minimum of 10 days of exposure to this schedule that concluded with at least three consecutive days when responding varied by less than 10%. […] Once stable cocaine self-administration was observed, rats were exposed to extinction; the rats were placed into the behavioral chambers, but responding on the “cocaine” (active) lever produced no programmed consequences. Extinction training continued until responding decreased to less than 20% of baseline self-administration. Then reinstatement testing commended. The rats were placed into the experimental chambers, both response levers were extended into the chamber, and the stimulus light above the “active” lever was illuminated as during self-administration training. […] Responding on the “active” lever during reinstatement testing was taken as, an index of cocaine-seeking behavior. Each experimental group consisted of […].
# [3] = tested on: adult male Wistar rats; experiment: Intravenous cocaine self-administration under a multiple, alternating schedule of food reinforcement and cocaine self-administration; assay type: in vivo, rat
# Procedure: Adult male Wistar rats were trained under a multiple, alternating schedule of cocaine and food self-administration. This schedule consisted of alternating periods of cocaine access and food reinforcement. In some instances, as described further below, three doses of cocaine (0.125, 0.25, or 0.50 mg/kg/infusion) were tested. Rats were also periodically trained with saline substitution (cocaine extinction) and food extinction during the same session.
# More specifically, adult male Wistar rats were implanted with chronic jugular catheters. Following recovery from surgery, the rats were trained to respond under a multiple, alternating schedule of food reinforcement and cocaine self-administration. Food-maintained responding was used to control for the non-specific motor effects of the various treatments. During the food component of the schedule, the stimulus light located above the food response lever was illuminated to indicate the availability of food reinforcement. […] A 25-second timeout followed the delivery of each food pellet. During this timeout, the stimulus light was darkened and responses on the food lever were counted but had no scheduled consequences. Responding on the other (cocaine) lever during the food component also had no scheduled consequences. […] Following 15 minutes of access to food, all stimulus lights in the chamber were darkened for a 1-minute timeout. Following the timeout, the stimulus light above the cocaine response lever was illuminated to indicate the availability of cocaine (0.125, 0.25, or 0.5 mg/kg/infusion). […] A 20-second timeout period followed each infusion. […] After 15 minutes of access to cocaine and a 1-minute timeout, the rats were again allowed 15 minutes access to the food component of the schedule. Access to food and cocaine alternated in this manner every 15 minutes during the two hour behavioral sessions so that each rat was exposed to food and cocaine for four 15-minute periods each. Each behavioral session began with 15 minutes access to either food or cocaine, and this alternated daily. Stable baselines of responding were established when the total number of cocaine and food presentations, as well as the number of presentations during each of the four exposures each session, varied less than 10% for three consecutive sessions. At least three different doses of cocaine (e.g., 0.125, 0.25, and 0.5 mg/kg/infusion) were tested. Rats were first trained to self-administer 0.25 mg/kg/infusion, which was the standard dose of cocaine used. When responding stabilized, the dose was changed to 0.125 or 0.5 mg/kg/infusion as appropriate.
# Once stable baselines of responding were obtained, dose-response curves for the various compounds were individually generated for each rat. Rats were treated with each dose at least twice with a minimum of two days of baseline cocaine self-administration interspersed between each test. Each group of rats was tested with only two of the test compounds to minimize potential carryover effects.
# [4] = Phase I single- and multiple-rising dose study: plasma pharmacokinetics; set-up: species or system human; details: in vivo; for Tmax / change of half-lives at different doses or with repeated dosing / half-life: human; for half-life: t1/2
# Text: Total daily doses were double these amounts on BID dosing days. Primary outcomes were safety and pharmacokinetics of MET, its active metabolite (metyrapol), and OX. Safety measures included vital signs, ECGs an standard safety labs. Cortisol and other HPA axis parameters were monitored closely throughout the study.
# They were not seeking to quit smoking. […] Primary outcomes were safety and pharmacokinetics.
# [5] = Pharmacokinetic interaction between cocaine, metyrapone and oxazepam (plasma concentrations, GCMS); assay type: in vivo, rat
# Procedure: Thirty minutes following the drug combination or vehicle injection, the rats received intravenous injections of cocaine (0.25 mg/kg/infusion) every 2 minutes for 1 hour. After the final injection of cocaine, blood was collected from the catheter for the analysis of cocaine and its metabolites ecgonine methyl ester and benzoylecgonine. […] All drug concentrations were determined using GCMS procedures.
# [6] = tested on: male Wistar rats; experiment: Forced Swim Test (FST), animal model of depression
# [7] = tested on: smokers; details: smoking cessation therapy; cited from earlier work
# [8] = high dose, ip pretreatment, drug alone
# [9] = low, ineffective dose, ip pretreatment, drug alone
# [10] = pretreatment, summary of the studies
smiles,measurement,setting,value
Cc1nnc2n1-c1ccc(Cl)cc1C(c1ccccc1)=NC2 [alprazolam],cocaine self-administration,[1],reduced responding maintained by both food and cocaine
same,reinstatement of extinguished cocaine seeking,[2],decrease
same,cocaine self-administration,[3]; [8],reduced cocaine self-administration
same,cocaine self-administration,[3]; [9],did not significantly affect
same,cocaine self-administration,[3]; [10],decrease cocaine self-administration
O=C1Nc2ccc(Cl)cc2C(c2ccccc2)=NC1O (centres unmarked) [oxazepam],Tmax,"[4]; human plasma, 270 mg Metyrapone/12 mg Oxazepam, Day 1, median, n 6, read-out: Tmax",3.5 h
same,Tmax,"[4]; human plasma, 270 mg Metyrapone/12 mg Oxazepam, Day 10, median, n 6, read-out: Tmax",3 h
same,Tmax,"[4]; human plasma, 540 mg Metyrapone/24 mg Oxazepam, Day 1, median, n 6, read-out: Tmax",3 h
same,Tmax,"[4]; human plasma, 540 mg Metyrapone/24 mg Oxazepam, Day 10, median, n 6, read-out: Tmax",3 h
same,Tmax,"[4]; human plasma, 720 mg Metyrapone/24 mg Oxazepam, Day 1, median, n 6, read-out: Tmax",4 h
same,Tmax,"[4]; human plasma, 720 mg Metyrapone/24 mg Oxazepam, Day 10, median, n 6, read-out: Tmax",3 h
NCc1cc(=O)[nH]o1 [muscimol],cocaine self-administration,[3]; [8],reduced cocaine self-administration
same,cocaine self-administration,[3]; [9],did not significantly affect
COC(=O)[C@H]1[C@@H](OC(=O)c2ccccc2)C[C@@H]2CC[C@H]1N2C [cocaine],effect on plasma concentrations of metyrapone or oxazepam,"[5]; rats, presence of cocaine",did not affect the plasma concentrations of metyrapone or oxazepam
CC(C)(C(=O)c1cccnc1)c1cccnc1 [metyrapone],influence on plasma concentrations of each other,"[5]; rat, in vivo, ip",did not influence plasma concentrations of each other
same,cocaine self-administration,[1],significant dose-related decreases
same,change of half-lives at different doses or with repeated dosing,[4],did not change substantially
same,Tmax,[4]; Tmax,1.5 h
same,half-life,[4],2.04 h
same,accumulation with repeated dosing,[4],Modest accumulation
same,immobility time,"[6]; chronic, individual drug, Met50 group",showed a lessening of immobility time
same,group means of immobility versus vehicle (tolerance),"[6]; chronically treated groups, drug alone",equal to or exceeded the vehicle
same,cue-induced reinstatement of extinguished cocaine seeking,"[2]; chronic, 50 mg/kg, ip, once per day for 14 days",reduced cocaine seeking to levels seen when only saline was delivered
same,reinstatement of extinguished cocaine seeking,[2],decrease
same,cocaine self-administration,[3]; [8],reduced cocaine self-administration
same,cocaine self-administration,[3]; [9],did not significantly affect
same,cocaine self-administration,[3]; [10],decrease cocaine self-administration
CC(C)(c1cccnc1)C(O)c1cccnc1 (centres unmarked) [metyrapol],change of half-lives at different doses or with repeated dosing,[4],did not change substantially
same,Tmax,[4]; Tmax,2 h
same,half-life,[4],8.41 h
CC(NC(C)(C)C)C(=O)c1cccc(Cl)c1 (centres unmarked) [bupropion],one year quit rate,[7],15.5%
CC(=O)N1CCN(c2ccc(OCC3COC(Cn4ccnc4)(c4ccc(Cl)cc4Cl)O3)cc2)CC1 (centres unmarked) [ketoconazole],cocaine self-administration,[1],reduced cocaine self-administration
same,reinstatement of extinguished cocaine seeking,[2],decrease
same,cocaine self-administration,[3]; [9],no effect; also recorded: did not significantly affect
same,cocaine self-administration,[3]; [10],decrease cocaine self-administration
same,minimally effective dose that reduced cocaine self-administration by at least 50% without affecting food-maintained responding,[3]; rats,25 mg/kg
"CCCCN(CC)c1nc(C)nc2c1c(C)cn2-c1c(C)cc(C)cc1C [CP-154,526]",reinstatement of extinguished cocaine seeking,[2],decrease
same,cocaine self-administration,[3]; [8],reduced cocaine self-administration
same,cocaine self-administration,[3]; [9],did not significantly affect
same,cocaine self-administration,[3]; [10],decrease cocaine self-administration
c1cnc2cc3c(cc2n1)[C@@H]1CNC[C@H]3C1 [varenicline],one year quit rate,[7],22.5%
